Consider one compound from ChEMBL document CHEMBL6134827, “The discovery of novel antimicrobial peptides against drug-resistant bacteria based on fragments fusion strategy” (Eur J Med Chem, 2025).

Active and inactive are the calls of the source. The calls are words filed in the database; no cut-off is given here. Non-standard residues stand in square brackets, D forms with d. Residues, ends and D or L forms follow the SMILES beside them. Dab = NCC[C@H](N)C(=O)O

The test system of data set [1] is Pseudomonas aeruginosa. In words: In vivo antibacterial activity against multidrug resistant Pseudomonas aeruginosa infected in acute peritonitis C57BL/6 mouse model assessed as reduction in pulmonary edema at 5 to 20 mg/kg, ip measured after 12 hrs by H and E staining based analysis. The format is functional, organism-based. Particulars: dose 5-20 mg/kg.
A short description of data set [2]: Toxicity in female C57BL/6 mouse assessed as effect on body weight at 20 mg/kg, ip administered daily and measured for 5 days. The format is organism-based. The following applies: in vivo, 120 h, time 5 day.
A short description of data set [3]: Cytotoxicity against human BEAS-2B cells assessed as survival rate at 64 microg/ml measured after 24 hrs by CCK-8 assay relative to control. The format is toxicity, cell-based. Particulars: at 64 µg/mL, read-out: Survival.
In data set [4] the test system is Cell membrane. In words: Disruption of cell membrane in multidrug resistant Staphylococcus aureus assessed as increase in red fluorescence at 16 microg/mL incubated after 2 hrs by SYTO9/PI double staining based fluorescence confocal microscopic analysis. It is filed as subcellular. Particulars: dose 16.0 µg/ml.
Data set [5] relates to Cell membrane. In words: Induction of cytoplasmic membrane depolarization in multidrug resistant Pseudomonas aeruginosa assessed as increase in fluorescence intensity measured for 12 min by DISC3-5 dye based fluorescence analysis. Particulars: dose 4-32 µg/ml. The format is subcellular.
The test system of data set [6] is Pseudomonas aeruginosa. Description: In vivo antibacterial activity against multidrug resistant Pseudomonas aeruginosa infected in acute peritonitis C57BL/6 mouse model assessed as decrease in IL-1beta level in serum at 5 to 20 mg/kg, ip measured after 12 hrs by ELISA. It is filed as functional, organism-based. The following applies: dose 5-20 mg/kg.
Data set [7] in a line: Toxicity in female C57BL/6 mouse assessed as histopathological change in heart at 20 mg/kg, ip administered daily and measured for 5 days by H and E staining based analysis. The format is organism-based. Particulars: in vivo, 120 h, time 5 day.
Data set [8] can be described thus: Toxicity in female C57BL/6 mouse assessed as histopathological change in spleen at 20 mg/kg, ip administered daily and measured for 5 days by H and E staining based analysis. The format is organism-based. Particulars: in vivo, 120 h, time 5 day.
Data set [9] has as its system Pseudomonas aeruginosa. In words: Antimicrobial activity against multidrug resistant Pseudomonas aeruginosa at 1.9 to 500 microg/ml in presence of lipopolysaccharide by checkerboard microdilution assay. Particulars: dose 1.9-500 µg/ml. The format is functional, organism-based.
In data set [10] the test system is Staphylococcus aureus. Description: Induction of morphological changes in multidrug resistant Staphylococcus aureus assessed as effect on cell integrity at 16 microg/ml incubated for 1 hrs by SEM analysis. It is filed as functional, organism-based. Particulars: dose 16.0 µg/ml.
Data set [11] has as its system Pseudomonas aeruginosa. In words: In vivo antibacterial activity against multidrug resistant Pseudomonas aeruginosa infected in acute peritonitis C57BL/6 mouse model assessed as reduction in bacterial load in kidney at 10 to 20 mg/kg, ip measured after 12 hrs. It is filed as functional, organism-based. Particulars: dose 10-20 mg/kg.
The subject of data set [12] is Cell membrane. In words: Disruption of cell membrane in multidrug resistant Pseudomonas aeruginosa assessed as increase in red fluorescence at 16 microg/mL incubated after 2 hrs by SYTO9/PI double staining based fluorescence confocal microscopic analysis. The format is subcellular. Particulars: dose 16.0 µg/ml.
In data set [13] the test system is Staphylococcus aureus. Description: Drug resistance, ratio of MIC for Staphylococcus aureus ATCC 29213 after 16 passages exposure to MIC for Staphylococcus aureus ATCC 29213 after first exposure. The format is functional.
Data set [14] deals with Pseudomonas aeruginosa. In words: In vivo antibacterial activity against multidrug resistant Pseudomonas aeruginosa infected in acute peritonitis C57BL/6 mouse model assessed as decrease in TNF-alpha level in serum at 5 to 20 mg/kg, ip measured after 12 hrs by ELISA. It is filed as functional, organism-based. The following applies: dose 5-20 mg/kg.
Data set [15] in a line: Hepatotoxicity in female C57BL/6 mouse assessed as change in AST level at 20 mg/kg, ip administered daily and measured for 5 days. The format is toxicity, organism-based. Particulars: in vivo, 120 h, time 5 day.

`CC(C)C[C@H](NC(=O)CN)C(=O)N[C@@H](CCCNC(=N)N)C(=O)N[C@@H](CCN)C(=O)N[C@@H](Cc1c[nH]c2ccccc12)C(=O)N[C@@H](CC(C)C)C(=O)N[C@@H](CCCNC(=N)N)C(=O)N[C@@H](CCN)C(=O)N[C@@H](Cc1ccccc1)C(=O)N[C@@H](CCN)C(=O)N[C@@H](CCN)C(=O)N[C@@H](Cc1ccccc1)C(=O)N[C@@H](Cc1c[nH]c2ccccc12)C(=O)O` (H-GLR[Dab]WLR[Dab]F[Dab][Dab]FW-OH): the result in [1], in data set [4], in data set [6], in data set [10], in data set [11] and in data set [12] was Active. The outcome in data set [14] was Active. In addition, the Activity result in data set [2] was “Toxic”; in data set [5] it was “Dose-dependent-effect”; in [7], “Non-toxic”; in data set [8] it was “Non-toxic”; in data set [15], “Non-toxic”. In addition, the viability at 24 h, 64 µg/mL in data set [3] was greater than 80%. The outcome in [9] was inactive. Also, in [13], the Ratio is reported as less than 2.
